The source of these data is patent publication US20070032538A1, “Use of compounds” (priority 1999, published 2007).

The subject of this experiment is subjects with IGM. Description: Multi-center, double-blind, parallel group, randomized study of nateglinide vs placebo before each main meal for 8 weeks in subjects with IGM. Format: in vivo, human. As to conditions: nateglinide 30 mg, 60 mg or 120 mg before each main meal, 8 weeks of treatment. As to the method: Favorable effects can be verified that confirm that hypoglycemic agents such as insulin enhancers can restore early phase insulin secretion and reduce post-prandial glucose levels in subjects with IGM. A multi-center, double-blind, parallel group, randomized study can be conducted in subjects with IGM in order to evaluate the incidence of confirmed hypoglycemia and the effects on prandial glucose associated with the administration of nateglinide 30 mg, 60 mg or 120 mg or placebo before each main meal during 8 weeks of treatment. Subjects are selected on the basis of a 2-hour plasma glucose value after a 75 g oral glucose tolerance test (OGTT) and patients essentially meeting the following additional inclusion criteria are included in the study: • two-hour glycemia post-OGTT between 7.8 to 11.1 mmol/L (one OGTT to be performed during the year before entering the study, the second to be performed within two weeks prior entering the study); • FPG <7 mmol/L; • patients are to have a body mass index (BMI) between 20-32 kg/m2; • patients are to maintain prior diet during the full course of study; • males, non-fertile females, females of child-bearing potential using a medically approved birth control method are included; • the use of other antidiabetics during the trial is not permitted. Corresponding dosages of e.g. nateglinide are administered with a large glass of water 2 (BID), 3 (TID) or 4 (QID) times daily depending on the number of main meals (breakfast, lunch, snack, dinner). The first dose is to be given with the first main meal (standardized meal i.e. 55% carbohydrates, 25% fat and 20% protein). Visits are scheduled to be performed at weeks 0, 2, 4 and 8 and the patients are to be fasted for at least 7 hours. All blood samples for laboratory evaluations are drawn between 07.00 and 10.00 a.m. HbA1c is to be measured at baseline. and after 8 weeks of treatment (fasting glucose and fructosamine). Samples of blood are to be drawn at 10, 20, […], 60, 120, and 180 minutes after drug administration (time 0) and the glucose and insulin levels to be measured. At weeks 0 and 8 visits, patients complete a standard meal challenge containing approximately 500 kcal and measurements of insulin and glucose will be performed. […] With longer treatment and follow-up, conditions and diseases associated with IGM could be prevented or reduced.

As to `CC(C)[C@H]1CC[C@H](C(=O)N[C@H](Cc2ccccc2)C(=O)O)CC1` [nateglinide, N-(trans-4-isopropylcyclohexylcarbonyl)-D-phenylalanine], the “2 hour prandial glucose levels” value is on record as “significantly reduced”, the HBA1c entry is given as “significantly reduced”, the “early phase insulin secretion” value was “restored” and the fructosamine levels result is “significantly reduced”. Also, the “progression to type 2 diabetes mellitus” value was “could prevent or delay”.
